From US12258336B2, “Preparation of seimicarbazide-sensitive amine oxidase inhibitor and use thereof” (SHANGHAI ENNOVABIO PHARMACEUTICALS CO., LTD., priority 2018, dated 2025)

Assays:
Type in all cases: biochemical
[1] = target: T1, Recombinant human AOC2 protein (Homo sapiens, UniProt O75106); test: Inhibitory activity on AOC2
T1 construct: Eli Lilly (provided, not a catalogue product)
T1 sequence (O75106 1-756): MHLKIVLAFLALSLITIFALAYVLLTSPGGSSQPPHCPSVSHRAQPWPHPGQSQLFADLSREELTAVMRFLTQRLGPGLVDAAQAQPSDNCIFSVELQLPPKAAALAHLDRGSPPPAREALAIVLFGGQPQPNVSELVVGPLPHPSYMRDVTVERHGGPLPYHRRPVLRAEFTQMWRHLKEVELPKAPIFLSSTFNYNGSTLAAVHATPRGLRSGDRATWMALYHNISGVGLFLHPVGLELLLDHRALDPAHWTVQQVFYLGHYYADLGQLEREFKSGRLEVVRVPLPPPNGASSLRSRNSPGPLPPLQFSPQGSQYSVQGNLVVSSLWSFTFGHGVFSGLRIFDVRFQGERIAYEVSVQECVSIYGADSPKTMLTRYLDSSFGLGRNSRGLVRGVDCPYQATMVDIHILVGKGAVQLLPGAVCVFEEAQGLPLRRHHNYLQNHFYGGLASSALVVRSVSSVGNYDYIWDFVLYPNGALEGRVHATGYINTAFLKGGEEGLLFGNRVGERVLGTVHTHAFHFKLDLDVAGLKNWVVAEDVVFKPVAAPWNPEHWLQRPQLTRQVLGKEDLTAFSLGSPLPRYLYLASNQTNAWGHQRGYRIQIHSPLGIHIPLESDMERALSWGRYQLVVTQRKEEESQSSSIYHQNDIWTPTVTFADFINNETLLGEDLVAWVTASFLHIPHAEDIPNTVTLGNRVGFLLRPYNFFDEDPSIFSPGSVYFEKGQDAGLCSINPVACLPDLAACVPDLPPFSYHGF
Method: Recombinant human AOC2 protein (provided by Eli Lilly). Other reagents are the same as those in Biological Test Example 1. The final concentration of test compound in 10 μL reaction system was 100 μM to 5 nM when AOC2 was detected, while other reaction conditions were the same as those in Biological Test Example 1. Data analysis and IC50 calculation method were the same as those in Biological Test Example 1.

Recombinant human MAO-B = target: T2, Recombinant human MAO-B (Homo sapiens, UniProt P27338); test: Inhibitory activity on MAO-B
T2 construct: purchased Sigma M7441
T2 sequence (P27338 1-520): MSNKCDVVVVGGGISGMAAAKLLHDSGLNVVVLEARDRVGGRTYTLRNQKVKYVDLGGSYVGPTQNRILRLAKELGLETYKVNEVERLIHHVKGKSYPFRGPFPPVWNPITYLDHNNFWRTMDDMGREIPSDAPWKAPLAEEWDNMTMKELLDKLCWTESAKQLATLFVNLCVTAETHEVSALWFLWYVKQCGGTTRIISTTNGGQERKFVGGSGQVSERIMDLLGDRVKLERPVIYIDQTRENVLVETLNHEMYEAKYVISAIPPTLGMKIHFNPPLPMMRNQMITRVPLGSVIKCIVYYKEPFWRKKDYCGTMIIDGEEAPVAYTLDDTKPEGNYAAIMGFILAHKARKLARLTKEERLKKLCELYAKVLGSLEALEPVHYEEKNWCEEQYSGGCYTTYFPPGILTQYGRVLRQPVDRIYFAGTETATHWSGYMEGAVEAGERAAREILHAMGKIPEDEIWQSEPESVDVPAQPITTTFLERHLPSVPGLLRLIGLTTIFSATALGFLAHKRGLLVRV
Method: (§1) Recombinant human MAO-A and MAO-B protein was purchased from Sigma (M7316, M7441). Other reagents are the same as Biological Test Example 1. The final concentration of test compound in 10 μL reaction system was 100 μM to 5 nM when MAO-A and MAO-B were detected. The final concentrations of MAO-A and MAO-B protein in 10 μL reaction system were 70 nM and 300 nM, respectively, while other reaction conditions were the same as those in Biological Test Example 1. Data analysis and IC50 calculation method were the same as those in Biological Test Example 1.

Recombinant human MAO-A = target: T3, Recombinant human MAO-A (Homo sapiens, UniProt P21397); test: Inhibitory activity on MAO-A
T3 construct: purchased Sigma M7316
T3 sequence (P21397 1-527): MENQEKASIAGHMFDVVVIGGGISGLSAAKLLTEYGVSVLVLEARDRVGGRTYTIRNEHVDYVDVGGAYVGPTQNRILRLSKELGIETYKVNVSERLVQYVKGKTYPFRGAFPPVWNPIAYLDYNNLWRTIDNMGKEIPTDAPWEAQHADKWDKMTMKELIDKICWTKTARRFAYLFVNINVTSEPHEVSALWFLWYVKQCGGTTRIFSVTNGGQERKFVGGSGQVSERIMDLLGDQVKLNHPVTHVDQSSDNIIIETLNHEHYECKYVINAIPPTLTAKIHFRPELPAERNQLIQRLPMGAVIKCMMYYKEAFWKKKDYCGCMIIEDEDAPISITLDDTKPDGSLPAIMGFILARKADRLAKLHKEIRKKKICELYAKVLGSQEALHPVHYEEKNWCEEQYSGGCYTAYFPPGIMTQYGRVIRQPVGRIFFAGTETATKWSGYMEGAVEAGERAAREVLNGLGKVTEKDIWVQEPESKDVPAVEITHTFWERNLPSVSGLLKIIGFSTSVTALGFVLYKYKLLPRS
Method: as §1

| SMILES | IC50 [1] [µM] | IC50 (Recombinant human MAO-B) [µM] | IC50 (Recombinant human MAO-A) [µM] |
| --- | --- | --- | --- |
| COC1CC2CCC(C1)N2c1ncc(OC/C(=C/F)CN)cn1 (stereo not drawn) [Example 12] | > 1 | > 20 | 2 to 100 |
| COC1CC2CC1CN2c1ncc(OC/C(=C/F)CN)cn1 (stereo not drawn) [Example 2] | > 1 | > 20 | 2 to 100 |
| N#Cc1cc(OC/C(=C/F)CN)cnc1N1CCN(C2COC2)CC1 [Example 7] | > 1 | 5 to 20 | > 100 |
| CC1(C)CN(c2ncc(OC/C(=C/F)CN)cn2)CCN1C1COC1 [Example 10] | > 1 | > 20 | > 100 |
| NC/C(=C/F)COc1cnc(N2CCN(C3COC3)CC2)nc1 [Example 8] | > 1 | 5 to 20 | 2 to 100 |
| NC/C(=C\F)COc1cnc(N2CC3CCC(C2)N3C2COC2)nc1 [Example 6] | 0.1 to 1 | > 20 | > 100 |

Results, then the compound that gave them:

| IC50 [1] [µM] | IC50 (Recombinant human MAO-B) [µM] | IC50 (Recombinant human MAO-A) [µM] | SMILES |
| --- | --- | --- | --- |
| > 1 | > 20 | > 100 | NC/C(=C\F)COc1cnc(N2CCN(C3COC3)CC2)nc1 [Example 4, (E)-3-fluoro-2-(((2-(4-(oxbutan-3-yl)piperazin-1-yl)pyrimidin-5-yl)oxo)methyl)prop-2-en-1-amine] |
| > 1 | > 20 | 2 to 100 | NC/C(=C\F)COc1cnc(N2CCC3(CC2)COC3)nc1 [Example 3] |
| 0.1 to 1 | > 20 | > 100 | NC/C(=C\F)COc1cnc(N2CCN(c3cnc(N4CCN(C5COC5)CC4)nc3)CC2)nc1 [Example 9] |
| 0.1 to 1 | > 20 | > 100 | CC1(C)CN(C2COC2)CCN1c1ncc(OC/C(=C/F)CN)cn1 [Example 5] |
| 0.1 to 1 | > 20 | > 100 | CC1CN(c2ncc(OC/C(=C/F)CN)cn2)CC(C)N1C1COC1 (stereo not drawn) [Example 1, (E)-2-(((2-(3,5-dimethyl-4-(oxbutan-3-yl)piperazin-1-yl)pyrimidin-5-yl)oxo)methyl)-3-fluoroprop-2-en-1-amine] |
